{"source": "patent US12517131B2", "about": "“Methods for labeling eukaryotic cells from a multicellular organism as well as for treating and/or diagnosing a cancer using modified monosaccharide compounds” (DIAMIDEX, priority 2019, dated 2026)", "key": {"[1]": {"tested_on": "AGS (vs Stomach epitelial cell)", "test": "Labeling of cancer and non-cancer cells, fluorescence signal ratio", "assay_type": "cell-based, human", "settings": "AGS (doubling time 30 h) vs Stomach epitelial cell (30 h); Ara-N3 10 mM; FBS 10%; test at 2 doubling time", "procedure": "(§1) The fluorescence Assimilation of Ara-N3 probes was visualized by copper-free click chemistry using sulfo-DBCO-biotin (1 mM), followed by labeling with a mouse anti-biotin Alexa Fluor 488 antibody conjugate (0.62 mg/ml stock, Jackson ImmunoResearch, dilution 1/10). The click reaction was carry-out as following: At 24 h incubation times, the culture mediums were removed, and attached cells were washed twice with PBS. Cells were detached with Tryp-LE, washed twice with PBS, and centrifuged at 13000 g for 2 min. The cellular pellets were resuspended with 10 μL of sulfo-DBCO-biotin and incubated 30 min in the dark, and at 37 C°. Then, cells were washed twice with PBS, centrifuged, and cellular pellets were resuspended with 10 μL of a mouse anti-biotin antibody solution, before to be incubated at room temperature in dark. Thereafter, cells were washed twice with PBS and small cellular suspension spots (5 μL) were put in Polysine® adhesion slides (VWR international S.A.S), in the dark room, until dry (20 min). The spots were fixed with 4% paraformaldehyde during 20 min, in dark and room temperature. Slides were then washed twice with PBS, before recovering with square cover glasses (VWR international S.A.S) using glycerol Mounting Medium (Dako) and stored at 4° C. in dark room.\n(§2) The fluorescence acquisition was recorded using Olympus Microscopy IX83 (Olympus Life Science) equipped with a 60×/1.3 […]/1.4 SRI (silicone refractive index) objective, and Hamamatsu oreca flash 4 LT camera with 109 nm/pixel calibrated pixel size. The excitation light was emitted by X-CITE 120LED using the AT180/30X excited filter and signal was monitored using AT535/40m emission filter. Green light exposition time was 600 ms and white light exposition time was determined by DIC methods at […]. The acquisition area size analyzed by the Celisens dimension V1.16 software was different depending on the cell number containing in the spot.\n(§3) The images were processed using count and measure unit of the Cellsens dimension V1.16 software. The background noise was deleted as follows: ROI were first defined on the background of the image and the average pixel intensity was calculated. The value thus obtained was subtracted from all pixels of the image. The fluorescence intensity of each cell was determined from a threshold set at a value of 3030. All pixels that have intensity below 3030 were not counted.\n(§4) The same experiments as in example 2 with other cancer and corresponding non cancer cells were performed. The culture media were adapted to the tested cells and supplemented by 10% fetal bovine serum (FBS). Ara-N3 probe (10 mM) was added to culture media with FBS concentration (10%). The incubation times corresponded to one doubling time or twice doubling time of the tested cells (see table below).\n(§5) The fluorescence signal cancer/non cancer ratios were calculated based on fluorescence intensities obtained with Ara-N3 tested on cancer and corresponding non cancer cells."}, "HL-60 (vs Lymphocytes T)": {"tested_on": "HL-60 (vs Lymphocytes T)", "test": "Labeling of cancer and non-cancer cells, fluorescence signal ratio", "assay_type": "cell-based, human", "settings": "HL-60 (28 h) vs Lymphocytes T (24 h); Ara-N3 10 mM; FBS 10%; one doubling time", "procedure": "as §1, §2, §3, §4, §5"}, "KCL22 (vs Lymphocytes)": {"tested_on": "KCL22 (vs Lymphocytes)", "test": "Labeling of cancer and non-cancer cells, fluorescence signal ratio", "assay_type": "cell-based, human", "settings": "KCL22 (24 h) vs Lymphocytes (24 h); Ara-N3 10 mM; FBS 10%; one doubling time", "procedure": "as §1, §2, §3, §4, §5"}, "Kasumi-1 (vs B12-F8)": {"tested_on": "Kasumi-1 (vs B12-F8)", "test": "Labeling of cancer and non-cancer cells, fluorescence signal ratio", "assay_type": "cell-based, human", "settings": "Kasumi-1 (48 h) vs B12-F8 (24 h); Ara-N3 10 mM; FBS 10%; one doubling time", "procedure": "as §1, §2, §3, §4, §5"}, "MDA MB453 (vs HME-1)": {"tested_on": "MDA MB453 (vs HME-1)", "test": "Labeling of cancer and non-cancer cells, fluorescence signal ratio", "assay_type": "cell-based, human", "settings": "MDA MB453 (30 h) vs HME-1 (30 h); Ara-N3 10 mM; FBS 10%; one doubling time", "procedure": "as §1, §2, §3, §4, §5"}, "[2]": {"tested_on": "MDA-MB-231 (vs Breast epithelial cell)", "test": "Labeling of cancer and non-cancer cells, fluorescence signal ratio", "assay_type": "cell-based, human", "settings": "MDA-MB-231 (doubling time 40 h) vs Breast epithelial cell (40 h); Ara-N3 10 mM; FBS 10%; test at 2 doubling time", "procedure": "as §1, §2, §3, §4, §5"}, "[3]": {"tested_on": "OCI-Ly10 (vs Isolated primary B cells)", "test": "Labeling of cancer and non-cancer cells, fluorescence signal ratio", "assay_type": "cell-based, human", "settings": "OCI-Ly10 (24 h) vs Isolated primary B cells; Ara-N3 10 mM; FBS 10%", "procedure": "as §1, §2, §3, §4, §5"}, "[4]": {"tested_on": "OCI-Ly3 (vs Isolated primary B cells)", "test": "Labeling of cancer and non-cancer cells, fluorescence signal ratio", "assay_type": "cell-based, human", "settings": "OCI-Ly3 (24 h) vs Isolated primary B cells; Ara-N3 10 mM; FBS 10%", "procedure": "as §1, §2, §3, §4, §5"}, "PANC (vs HPNE)": {"tested_on": "PANC (vs HPNE)", "test": "Labeling of cancer and non-cancer cells, fluorescence signal ratio", "assay_type": "cell-based, human", "settings": "PANC (32 h) vs HPNE (32 h); Ara-N3 10 mM; FBS 10%; one doubling time", "procedure": "as §1, §2, §3, §4, §5"}, "[5]": {"tested_on": "HME1 (immortalized cell lines)", "test": "In vitro cytotoxicity of Ara-N3 probe (Annexin V/IP, MTS)", "assay_type": "cell-based", "procedure": "(§6) The cell lines (as detailed below in the table) were provided by Inserm/Aquiderm transfer cell. Cell culture of cell lines and cell cytoxicity tests were also carried out by Aquiderm transfer cell, in the laboratory of INSERM U1035.\n(§7) All the cells were seeded in culture plates, either in 96 wells at the density of 1*10^4 cells/well for the MTS proliferation test, either in 24 wells at the density of 5*10^4 cells/well for the Annexin V test/IP test. Then the cells were incubated at 37° C. and 5% CO2 for 24 hours. After 24 hours, the culture medium was changed in all the wells and the cells adhered to the bottom of the wells were rinsed twice in PBS (Eurobio) or centrifuged and washed twice in PBS for the cells in suspension, before being exposed to the Ara-N3 probe at different concentrations: 1, 10, 50 and 100 mM. The cells were incubated at 37° C. and 5% CO2 for 48 hours.\n(§8) This test requires the use of an Annexin V-APC kit (Biolegend) for the detection of apoptosis/necrosis. This test uses the ability of Annexin V to bind to membrane phosphatidylserines (PS) and the intercalating properties of propidium iodide (PI) on DNA.\n(§9) Briefly, after incubation of the cells with the Ara-N3 probe at different concentrations and at different times (24 h and 48 h), the cells were recovered, trypsinized (for adherent cells) and washed in PBS. After counting in trypan blue on the Malassez cell, the cells were incubated in a labeling buffer (100 μL) in the presence of Annexin V-APC (5 μL) and of IP (10 μL) for 15 minutes at room temperature and in the dark. They were then directly analyzed by cytometry after adding 100 μL of labeling buffer.\n(§10) The non-toxic concentrations of Ara-N3 with respect to the tested cells are gathered in the following Table 5."}, "[6]": {"tested_on": "MDA MB175 (tumoral cell lines)", "test": "In vitro cytotoxicity of Ara-N3 probe (Annexin V/IP, MTS)", "assay_type": "cell-based", "procedure": "as §6, §7, §8, §9, §10"}}, "data": [{"smiles": "[N-]=[N+]=NC[C@H]1OC(O)[C@@H](O)[C@@H]1O", "note": "(stereo partly drawn) [Ara-N3, 5-azido-5-deoxy-D-arabinofuranose]", "values": [{"measurement": "Cancer/Non Cancer Ratio (fluorescence signal)", "setting": "[1]", "value": 2.9}, {"measurement": "Cancer/Non Cancer Ratio (fluorescence signal)", "setting": "HL-60 (vs Lymphocytes T)", "value": 1.6}, {"measurement": "Cancer/Non Cancer Ratio (fluorescence signal)", "setting": "KCL22 (vs Lymphocytes)", "value": 4.9}, {"measurement": "Cancer/Non Cancer Ratio (fluorescence signal)", "setting": "Kasumi-1 (vs B12-F8)", "value": 1.5}, {"measurement": "Cancer/Non Cancer Ratio (fluorescence signal)", "setting": "MDA MB453 (vs HME-1)", "value": 2.2}, {"measurement": "Cancer/Non Cancer Ratio (fluorescence signal)", "setting": "[2]", "value": 2.5}, {"measurement": "Cancer/Non Cancer Ratio (fluorescence signal)", "setting": "[3]", "value": 2.1}, {"measurement": "Cancer/Non Cancer Ratio (fluorescence signal)", "setting": "[4]", "value": 6.2}, {"measurement": "Cancer/Non Cancer Ratio (fluorescence signal)", "setting": "PANC (vs HPNE)", "value": 1.8}, {"measurement": "Non-toxic concentration of Ara-N3", "setting": "[5]", "value": ">1", "unit": "mM"}, {"measurement": "Non-toxic concentration of Ara-N3", "setting": "[6]", "value": ">1", "unit": "mM"}]}]}
